Laboratory results: patent US8765786B2, “1-substituted indazole derivative” (Dainippon Sumitomo Pharma Co., Ltd., priority 2012, dated 2014)

Target: T1, human α7 nAChR (Homo sapiens, UniProt P36544)
T1 construct: expressed in transfected cells; host or cells: GH4C1 cells derived from rat pituitary (ATCC CCL-82.2)
Assay: Evaluation of PAM activity with human α7 nACh receptor stably expressing cells (aequorin luminescence, FDSS7000)
Format: cell-based
Conditions: for PAM activity for α7 nAChR: result in words, ratio of RLU (Max-Min) to control wells, ACh EC20; for α7PAM (%) @ 10 μmol/L / activity at 10 µM: test compound 10 μmol/L, ACh added at EC20, ratio of RLU (Max-Min) of test wells to control wells; for activity at 10 µM: read-out: α7PAM (%) @ 10 μmol/L
Source text: Human α7 nAChR stably expressing cells were generated and cultured. In detail, GH4C1 cells derived from rat pituitary (cat#CCL-82.2, ATCC, USA) were used as a host cell. PcDNA3.1Zeo vector containing a nucleotide sequence encoding a protein GenBank BAC81731 and pcDNA3.1 vector containing human α7 nAChR gene (cat#V790-20, invitrogen, Carlsbad, Calif., USA) were transfected to the cells to give aequorins and human α7 nAChR stably expressing cells respectively. The aequorins and human α7 nAChR stably expressing cells were screened with Zeocin (cat#R25001, invitrogen, Carlsbad, Calif., USA) and Geneticin (cat #10131-027, invitrogen, Carlsbad, Calif., USA) respectively.
The cells were cultured in F-10 Nutrient Mixture (Ham) medium (cat #11550-043, invitrogen, Carlsbad, Calif., USA) containing 2.5% fetal bovine serum (cat #2917354, ICN Biomedicals, Inc, USA), 15% inactivated horse serum (cat #26050-088, invitrogen, Carlsbad, Calif., USA), 1 μg/mL Geneticin, and 5 μg/mL Puromycin (cat #14861-84, invitrogen, Carlsbad, Calif., USA), in a Collagen Type 1-coated dish (cat #4030-010, iwaki, Tokyo, Japan). During the culture, the medium was replaced with fresh medium in every 2 to 3 days, and the cells were treated with TrypLE Express (cat #45604-021, invitrogen, Carlsbad, Calif., USA) to collect them in every 7 days. Thus, the cells were subcultured.
7 Days after subculturing, the cells were treated with TrypLE Express to collect them when they were about 80% confluent. The cells were suspended in a reaction medium containing Hanks (cat #14065-056, invitrogen, Carlsbad, Calif., USA)/20 mmol/L Hepes (cat #15630-080, invitrogen, Carlsbad, Calif., USA), Buffer (pH 7.4), F-10 Nutrient Mixture (Ham), and 0.1 mg/mL Geneticin, and the suspension was seeded in a 384-well plate (cat #781090, Greiner, Germany) at 20000 cells/25 μL per well.
On the next day after seeding, Viviren (cat#E649X, Promega, Madison, Wis., USA) was added to the medium so that the final concentration could be 4 μmol/L (15 μL/well). The plates were centrifuged and then placed in the dark for 4 hours at room temperature.
Each of the test compounds was dissolved in DMSO to prepare each test sample at a concentration of 1000-fold the final concentration. To the solution was added Hanks/20 mM HEPES/0.2% BSA (cat#A3803, Sigma, St. Louis, Mo., USA), and the concentration was adjusted to 6-fold the final concentration.
FDSS7000 (Hamamatsu Photonics) was used to detect the luminescence signal evoked by α7 nAChR stimulation. The cells and a luminescent substrate were put on a plate, and the test sample was added thereto. […] After the addition of ACh, the luminescence signal (the central wavelength: 465 nm) was measured for 138 seconds to calculate RLU (Max-Min). The ratio of the RLU (Max-Min) of the test-compound-containing wells to that of the control wells was defined as PAM activity.

T1 sequence (P36544 23-502): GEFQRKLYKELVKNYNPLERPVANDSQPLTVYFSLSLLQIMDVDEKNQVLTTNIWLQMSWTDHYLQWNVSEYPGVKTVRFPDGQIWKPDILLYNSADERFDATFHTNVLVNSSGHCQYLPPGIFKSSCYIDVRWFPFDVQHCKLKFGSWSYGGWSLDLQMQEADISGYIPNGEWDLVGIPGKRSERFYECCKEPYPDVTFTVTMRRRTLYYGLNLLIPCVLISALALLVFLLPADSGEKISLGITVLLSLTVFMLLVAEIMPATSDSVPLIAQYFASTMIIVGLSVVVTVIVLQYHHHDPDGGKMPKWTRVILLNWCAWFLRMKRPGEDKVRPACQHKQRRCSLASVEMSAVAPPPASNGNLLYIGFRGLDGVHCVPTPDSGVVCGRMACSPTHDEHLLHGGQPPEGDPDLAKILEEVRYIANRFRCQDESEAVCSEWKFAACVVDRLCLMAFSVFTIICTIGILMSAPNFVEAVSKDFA

| Compound | α7PAM (%) @ 10 μmol/L [%] | also measured |
| --- | --- | --- |
| Cc1cccc2c1cnn2C1CCN(C(=O)NC2CCC(OC(F)F)CC2)CC1 (centres unmarked) [Example 97] | 117 |  |
| CO[C@H]1CC[C@H](NC(=O)N2CCC(n3ncc4c(C)c(OC(F)F)ccc43)CC2)CC1 [Example 293] | 525 |  |
| COc1c(C)ccc2c1cnn2C1CCN(C(=O)NC2CCOCC2)CC1 [Example 268] | 361 |  |
| COCC1CCC(NC(=O)N2CCC(n3ncc4cc(Br)ccc43)CC2)CC1 (centres unmarked) [Example 238] | 1031 |  |
| CC(C)c1ccc2c(cnn2C2CCN(C(=O)C3CCOCC3)CC2)c1 [Example 107] | 159 |  |
| O=C(NC1CCC(F)(F)CC1)N1CCC(n2ncc3cc(Cl)ccc32)CC1 [Example 34, 4-(5-chloro-1H-indazol-1-yl)-N-(4,4-difluorocyclohexyl)piperidine-1-carboxamide] |  | activity at 10 µM: 445% |
| CCOc1nn(C2CCN(C(=O)NC3CCOCC3)CC2)c2ccc(CC)cc12 [Example 2, 4-(3-ethoxy-5-ethyl-1H-indazol-1-yl)-N-(tetrahydro-2H-pyran-4-yl)piperidine-1-carboxamide] |  | activity at 10 µM: 625% |
| CCOc1ccc2c(cnn2C2CCN(C(=O)C3CCCC3)CC2)c1 [Example 110] | 291 |  |
| COCc1ccc2c(cnn2C2CCN(C(=O)NC3CCC(F)(F)CC3)CC2)c1 [Example 54] | 657 |  |
| COc1ccc2c(cnn2C2CCN(C(=O)N[C@H]3CC[C@H](OC)CC3)CC2)c1OC [Example 306] | 147 |  |
| O=C(NC1CCCC1)N1CCC(n2ncc3cc(C4CC4)ccc32)CC1 [Example 171] | 1382 |  |
| COCCCc1ccc2c(cnn2C2CCN(C(=O)N[C@H]3CC[C@H](OC)CC3)CC2)c1 [Example 32] | 430 |  |
| [2H]C([2H])([2H])O[C@H]1CC[C@H](NC(=O)N2CCC(n3ncc4cc(OC(F)(F)F)ccc43)CC2)CC1 [Example 226, N-{trans-4-[(^2H3)methoxy]cyclohexyl}-4-[5-(trifluoromethoxy)-1H-indazol-1-yl]piperidine-1-carboxamide] | 594 |  |
| O=C(NCc1ccccc1)N1CCC(n2ncc3cc(C4CC4)ccc32)CC1 [Example 194] | 278 |  |
| CCc1ccc2c(cnn2C2CCN(C(=O)C3CCOCC3)CC2)c1 [Example 111] | 410 |  |
| COc1ccc2c(c1)c(C1=CCOCC1)nn2C1CCN(C(=O)N[C@H]2CC[C@H](OC)CC2)CC1 [Example 260] | 428 |  |
| [2H]C([2H])([2H])Oc1ccc2c(cnn2C2CCN(C(=O)NC3CCC(F)(F)CC3)CC2)c1 [Example 319] | 1337 |  |
| CCc1ccc2c(cnn2C2CCN(C(=O)NC3CCCC3)CC2)c1 [Example 20] | 2215 | PAM activity for α7 nAChR: stronger PAM activity than others |

| Compound | α7PAM (%) @ 10 μmol/L [%] | also measured |
| --- | --- | --- |
| CCOc1c(CC)ccc2c1cnn2C1CCN(C(=O)NC2CCC(F)(F)CC2)CC1 [Example 271] | 931 |  |
| [2H]C([2H])([2H])O[C@H]1CC[C@H](NC(=O)N2CCC(n3ncc4cc(C([2H])([2H])[2H])ccc43)CC2)CC1 [Example 308] | 1021 |  |
| COCC1CCC(NC(=O)N2CCC(n3ncc4cc(OC(F)(F)F)ccc43)CC2)CC1 (centres unmarked) [Example 228] | 276 |  |
| COCc1c(C2CC2)ccc2c1cnn2C1CCN(C(=O)NC2CCC(F)(F)CC2)CC1 [Example 215] | 851 |  |
| CCc1nn(C2CCN(C(=O)NC3CCC(F)(F)CC3)CC2)c2ccc(C)cc12 [Example 42, N-(4,4-difluorocyclohexyl)-4-(3-ethyl-5-methyl-1H-indazol-1-yl)piperidine-1-carboxamide] |  | activity at 10 µM: 241% |
| CCOCc1cccc2c1cnn2C1CCN(C(=O)NC2CCCCC2)CC1 [Example 167] | 434 |  |
| CCc1ccc2c(cnn2C2CCN(C(=O)C3CCC(F)(F)CC3)CC2)c1 [Example 113] | 654 |  |
| O=C(NC1CC1)N1CCC(n2ncc3cc(C4CC4)ccc32)CC1 [Example 176] | 187 |  |
| CCCc1ccc2c(cnn2C2CCN(C(=O)C3CCOCC3)CC2)c1 [Example 108] | 207 |  |
| CCOc1nn(C2CCN(C(=O)NC3CCC(OC)CC3)CC2)c2ccc(CC)cc12 (centres unmarked) [Example 57] | 382 |  |
| CO[C@H]1CC[C@H](NC(=O)N2CCC(n3ncc4cc(-c5ccc(F)cc5)ccc43)CC2)CC1 [Example 155] | 210 |  |
| CCOc1ccc2c(cnn2C2CCN(C(=O)NC3CCCCC3)CC2)c1 [Example 18, N-cyclohexyl-4-(5-ethoxy-1H-indazol-1-yl)piperidine-1-carboxamide] |  | PAM activity for α7 nAChR: stronger PAM activity than others |
| CO[C@H]1CC[C@H](NC(=O)N2CCC(n3ncc4cc(OC5CC5)ccc43)CC2)CC1 [Example 230, 4-[5-(cyclopropoxy)-1H-indazol-1-yl]-N-(trans-4-methoxycyclohexyl)piperidine-1-carboxamide] |  | activity at 10 µM: 621% |
| COc1nn(C2CCN(C(=O)NC3CCOCC3)CC2)c2ccc(OC(F)(F)F)cc12 [Example 264] | 263 |  |
| COCCCc1ccc2c(cnn2C2CCN(C(=O)NC3CCC(F)(F)CC3)CC2)c1 [Example 26] | 521 |  |
| CCc1ccc2c(cnn2[C@H]2CC[C@@H](NC(=O)C3CCC(F)(F)CC3)CC2)c1 [Example 4, N-(cis-4-(5-ethyl-1H-indazol-1-yl)cyclohexyl)-4,4-difluorocyclohexanecarboxamide] |  | PAM activity for α7 nAChR: stronger PAM activity than others |
| [2H]C([2H])([2H])c1ccc2c(cnn2C2CCN(C(=O)NC3CCC(F)(F)CC3)CC2)c1 [Example 311] | 1393 |  |

Further lines, with some results ahead:

| α7PAM (%) @ 10 μmol/L [%] | Compound | also measured |
| --- | --- | --- |
| 2160 | COCC1CCC(NC(=O)N2CCC(n3ncc4cc(C)ccc43)CC2)CC1 (centres unmarked) [Example 220] | PAM activity for α7 nAChR: stronger PAM activity than others |
| 279 | CC(C)Oc1ccc2c(cnn2C2CCN(C(=O)C3CCC(F)(F)CC3)CC2)c1 [Example 116] |  |
| 924 | COc1ccc2c(c1)c(C1CCOCC1)nn2C1CCN(C(=O)NC2CCC(F)(F)CC2)CC1 [Example 261] |  |
| 133 | COC1CCC(NC(=O)N2CCC(n3ncc4c(C)cccc43)CC2)CC1 (centres unmarked) [Example 95] |  |
| 292 | CCc1cccc2c1cnn2C1CCN(C(=O)N[C@H]2CC[C@@H](OC)CC2)CC1 [Example 158] |  |
| 832 | COCC1CCC(NC(=O)N2CCC(n3ncc4cc(Cl)ccc43)CC2)CC1 (centres unmarked) [Example 237] |  |
| 448 | COc1nn(C2CCN(C(=O)NC3CCOCC3)CC2)c2ccc(C(F)(F)F)cc12 [Example 266] |  |
| 200 | CCOc1cccc2c1cnn2C1CCN(C(=O)N[C@H]2CC[C@@H](OC)CC2)CC1 [Example 184] |  |
| 480 | CO[C@H]1CC[C@H](NC(=O)N2CCC(n3ncc4c(C)c(C)ccc43)CC2)CC1 [Example 225] |  |
| 517 | O=C(NC1CC(F)(F)C1)N1CCC(n2ncc3cc(C4CC4)ccc32)CC1 [Example 217] |  |
| 1668 | CCc1ccc2c(cnn2C2CCN(C(=O)NC3CCC(F)(F)CC3)CC2)c1OC [Example 256] |  |
| 481 | COC1CCC(NC(=O)N2CCC(n3ncc4c(C5CC5)cccc43)CC2)CC1 (centres unmarked) [Example 37] |  |
| 647 | COC(C)c1cccc2c1cnn2C1CCN(C(=O)NC2CCC(F)(F)CC2)CC1 (centres unmarked) [Example 231] |  |
| 824 | CCOc1ccc2c(cnn2C2CCN(C(=O)NC3CCC(COC)CC3)CC2)c1 (centres unmarked) [Example 234] |  |
| 801 | COc1ccc2c(c1)c(C1CC1)nn2C1CCN(C(=O)N[C@H]2CC[C@H](OC)CC2)CC1 [Example 257] |  |
| 1063 | COc1ccc2c(cnn2C2CCN(C(=O)NC3CCCC3(F)F)CC2)c1 (centres unmarked) [Example 88] |  |
